Assays:
[1] = tested on: costovertebral organ of hamsters; experiment: Costovertebral organ study repeated with female hamsters (antiandrogenic activity, topical); type: in vivo; conditions: for inhibition of the weight increase of the organ: right costovertebral organ, topical 5 mg/day
Procedure: (§1) Male golden hamsters weighing 100 to 110 g castrated 7 days earlier received a subcutaneous injection of 125 μg per day and per animal of testosterone propionate in 0.2 ml of a sesame oil solution containing 0.5% of benzyl alcohol. One group of animals received also a treatment by topical application of an ethanol solution of the test compound on the right costovertebral organ and the left costovertebral organ received only ethanol. The treatment lasted for 8 days and 24 hours after the last, the costovertebral organs and the prostate were removed and weighed.
The study was repeated with female hamsters to test the antiandrogenic activity of the compounds of Examples 7 and 13 at a dose of 5 mg/day and the results are reported in Table III.
The test was repeated on female hamsters to determine the antiandrogenic activity of the compounds of Examples 13 to 17 at 1 mg/day and the results are reported in Table IV.

[2] = tested on: costovertebral organ of hamsters; experiment: In vivo study with costovertebral organ of hamsters (male, castrated, testosterone propionate-treated, topical test product); parameters: species or system Male golden hamsters; conditions: for Control Gland in mg / Treated Gland in mg: Table II, 8 days; for Control Gland in mg: left costovertebral organ (ethanol only), testosterone propionate s.c. alone or + product B 1 mg/day; for Treated Gland in mg: testosterone propionate s.c. alone or + product B 1 mg/day topical
Procedure: (§2) B. In vivo study with costovertebral organ of hamsters
as §1

[3] = tested on: prostate; experiment: In vivo study with hamsters: prostate weight (male, castrated, testosterone propionate-treated, topical test product); parameters: species or system Male golden hamsters; conditions: for Prostate in mg: Table II, testosterone propionate s.c. alone or + product B 1 mg/day topical, 8 days
Procedure: as §2, §1

[4] = tested on: male mice; experiment: Acute toxicity in male mice; type: in vivo; conditions: 7th day
Procedure: Five male mice weighing 18 to 20 g received an intraperitoneal or oral administration of decreasing doses of product B in aqueous solution containing 0.25% of carboxymethyl cellulose and 0.2% of Tween at 1000, 600 or 400 mg/kg and the number of dead mice was determined on the 7th day. The DLo or the more elevated dose at which no mortality was observed was determined to be 400 mg/kg intraperitoneally and 1000 mg/kg orally for product B.

[5] = Table III, testosterone propionate alone or + product 5 mg/day
[6] = Table III, testosterone propionate alone or + product 5 mg/day topical
[7] = Table IV, testosterone propionate alone or + product 1 mg/day
[8] = Table IV, testosterone propionate alone or + product 1 mg/day topical

CCC1=C2CC[C@@]3(C)C(CC[C@@H]3OC(C)=O)C2CCC1=O (stereo partly drawn) [Example 13, 3β-acetoxy-3aβ-methyl-6-ethyl-1,2,3,3a,4,5,8,9,9a,9b-decahydro-7H-benz(e)-inden-7-one]
Control Gland in mg [1, 5]: 10,8 ± 2,1 mg | Treated Gland in mg [1, 6]: 3,9 ± 0,4 mg | % inhibition of weight increase ([1]; Table IV, 1 mg/day topical): 61% | Control Gland in mg [1, 7]: 9,9 ± 1,6 mg | Treated Gland in mg [1, 8]: 6,0 ± 0,2 mg | inhibition of the weight increase of the organ [1]: 95.6%

CCC1=C2CC[C@@]3(C)C(CC[C@@H]3O)C2CCC1=O (stereo partly drawn) [Product B, 3aβ-methyl-6-ethyl-1,2,3,3a,4,5,8,9,9a,9b-decahydro-7-H-benz(e)-inden-3β-ol-7-one]
Control Gland in mg [2]: 41,8 ± 5,2 mg | Treated Gland in mg ([2]; right costovertebral organ): 17,1 ± 2,2 mg | antagonism of the effect of testosterone propionate on the untreated gland ([2]; left (untreated) gland, product applied locally to right costovertebral organ): did not antagonize the effect of testosterone propionate on the untreated gland | inhibition in the weight increase of the organ ([2]; right costovertebral organ, male hamsters, topical 1 mg/day): 61% | Prostate in mg [3]: 80,1 ± 9,3 mg | systemic effect ([3]; inferred from untreated gland and prostate after local application): does not have a systemic effect | antagonism of the effect of testosterone propionate on the prostate ([3]; product applied locally to right costovertebral organ): did not antagonize the effect of testosterone propionate on the untreated gland or the prostate | DLo (more elevated dose at which no mortality was observed) ([4]; intraperitoneal): 400 mg/kg | DLo (more elevated dose at which no mortality was observed) ([4]; oral): 1000 mg/kg

CCC(=O)O[C@H]1CC[C@H]2[C@@H]3CCC4=CC(=O)CC[C@]4(C)[C@H]3CC[C@]12C [Testosterone Propionate, testosterone propionate, reference compound]
Control Gland in mg [2]: 35,8 ± 5,0 mg | Treated Gland in mg ([2]; right costovertebral organ): 33,91 ± 2,9 mg | Prostate in mg [3]: 79,5 ± 5,5 mg | Control Gland in mg [1, 5]: 15,8 ± 1,0 mg | Treated Gland in mg [1, 6]: 14,9 ± 1,1 mg | Control Gland in mg [1, 7]: 11,0 ± 2,0 mg | Treated Gland in mg [1, 8]: 10,2 ± 0,6 mg

CCCC(=O)O[C@H]1CCC2C3CCC(=O)C(CC)=C3CC[C@@]21C (stereo partly shown) [Example 7, Butanoate of 3aβ-methyl-6-ethyl-7-oxo-1,2,3,3a,4,5,8,9,9a,9b-decahydro-1H-benz(e)-inden-3-yl]
Control Gland in mg [1, 5]: 9,5 ± 0,8 mg | Treated Gland in mg [1, 6]: 4,5 ± 0,4 mg | inhibition of the weight increase of the organ [1]: 90%

From US4927975A, “Process for preparing certain decahydro-7H-3-ol-7-ones” (Roussel Uclaf, priority 1981, dated 1990)
